Data as given in patent publication US6100073A, “Acid-stable and thermo-stable enzymes derived from sulfolobus species” (Genencor International, Inc., priority 1994, dated 2000).

Target: enzyme having α-1,4 hydrolytic activity derived from Sulfolobus acidocaldarius DSM 639 (purified, about 95 kDa; EC 3.2.1.1 / amylopullulanase) (Sulfolobus acidocaldarius, UniProt Q4J9M2)
Experiment: biochemical
Protocol: In a hermetically sealed tube, 25 μl of solution C was mixed with 25 μl of water and then added to 250 μl of a solution containing 0.1% (w/v) Lintner'starch (Baker), citrate/phosphate buffer (100 mM/200 mM) at various pH values (as described in detail below). The mixture was then incubated for 15 minutes at various temperatures (see below). Incubation was terminated by transferring the tube to an ice/water bath (0° C.).
The absorbance was measured at 620 nm (Pharmacia LKB Ultraspec Plus).
A blank assay was performed by replacing the 50 μl enzyme solution C with water.
The relative activity (relative units) was calculated from the standard curve by calculation of the value [(ODb -ODs)/ODb ]×100, and then linearly extrapolating the corresponding volume (μl) from the two closest points of the standard curve.
The relative (α-1,4 hydrolytic) activity (%) is defined as the extrapolated volume value (μl), deduced from the standard curve.
Respective samples of Solution C were obtained and prepared as described above in Example 4 to perform the standard assay.
The influence of various metal cations and of EDTA on the α-1,4 hydrolytic activity of the enzyme derived from Sulfolobus acidocaldarius DSM 639 was determined by running the standard assay described above in Example 4 on each of the tubes (samples) in the presence of the additional various metal cations at a final concentration of 2, 5, and 10 mM.

[1] = read-out: Relative activity (%)

Sequence of enzyme having α-1,4 hydrolytic activity derived from Sulfolobus acidocaldarius DSM 639 (purified, about 95 kDa; EC 3.2.1.1 / amylopullulanase) (Q4J9M2 1-884): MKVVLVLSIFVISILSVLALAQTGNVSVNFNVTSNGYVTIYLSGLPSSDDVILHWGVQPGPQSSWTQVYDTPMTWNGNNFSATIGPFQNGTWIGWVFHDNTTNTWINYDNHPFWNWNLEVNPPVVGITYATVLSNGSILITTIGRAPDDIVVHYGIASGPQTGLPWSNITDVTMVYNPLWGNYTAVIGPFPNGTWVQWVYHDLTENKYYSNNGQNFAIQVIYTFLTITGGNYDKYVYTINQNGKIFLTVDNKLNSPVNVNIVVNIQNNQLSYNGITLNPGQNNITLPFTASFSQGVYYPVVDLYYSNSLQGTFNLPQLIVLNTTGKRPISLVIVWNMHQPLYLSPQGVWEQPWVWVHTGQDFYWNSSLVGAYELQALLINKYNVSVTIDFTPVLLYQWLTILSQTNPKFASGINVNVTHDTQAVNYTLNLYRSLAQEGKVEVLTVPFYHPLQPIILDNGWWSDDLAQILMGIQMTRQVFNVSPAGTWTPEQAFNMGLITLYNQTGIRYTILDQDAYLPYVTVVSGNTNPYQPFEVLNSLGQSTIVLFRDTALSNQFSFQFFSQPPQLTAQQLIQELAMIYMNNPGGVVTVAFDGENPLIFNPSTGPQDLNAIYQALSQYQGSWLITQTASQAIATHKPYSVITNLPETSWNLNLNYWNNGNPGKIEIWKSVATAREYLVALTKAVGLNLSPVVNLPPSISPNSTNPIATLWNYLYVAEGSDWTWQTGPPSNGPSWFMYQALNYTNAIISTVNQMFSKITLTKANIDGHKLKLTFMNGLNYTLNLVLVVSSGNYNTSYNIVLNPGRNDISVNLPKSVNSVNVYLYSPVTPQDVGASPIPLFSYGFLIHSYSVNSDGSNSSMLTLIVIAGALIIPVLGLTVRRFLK

**Q.** `O=C(O)CN(CCN(CC(=O)O)CC(=O)O)CC(=O)O` [EDTA] was tested. Which “α-1,4 hydrolytic activity in the absence of calcium (with EDTA)” value (EDTA 2-10 mM, summary of Table 6) did it give?
**A.** Its value is “fully active”.

**Q.** And the activity at 2000 µM [1]?
**A.** The activity at 2000 µM was 97%.

**Q.** What about the activity at 5000 µM [1] of the same compound?
**A.** The activity at 5000 µM was 101%.

**Q.** What about the activity at 10000 µM [1] of the same compound?
**A.** The activity at 10000 µM was 98%.
